Our source for the IC50 values is patent publication US9573913B2, “Cathepsin cysteine protease inhibitors” (Merck Sharp & Dohme Corp., priority 2013, dated 2017).

Assay [1] concerns the target human cathepsin K (UniProt P43236). The experiment in a line: Cathepsin K Assay (hrbCat K). The settings on record: Z-Leu-Arg-AMC substrate, pH 5.5, 15 min preincubation; read-out: hrbCat K (IP (nM)). Type of assay: biochemical. The method, then: Cathepsin K Assay (hrbCat K)
(§1) Then 0.5 μL of DMSO from each dilution were added to 18.75 μL of assay buffer (MES, 50 mM (pH 5.5); EDTA, 2.5 mM; DTT, 2.5 mM and 10% DMSO) containing human cathepsin K (0.4 nM) in assay buffer solution. The assay solutions were mixed for 5-10 seconds on a shaker plate and incubated for 15 minutes at room temperature. Z-Leu-Arg-AMC (8 μM) in 6.25 μL of assay buffer was added to the assay solutions. Hydrolysis of the coumarin leaving group (AMC) was followed by spectrofluorometry (Exλ=360 nm; Emλ=460 nm) for 30 minutes. Percent of inhibition were calculated by fitting experimental values to standard mathematical model for dose response curve.

In assay [2] the target is T1, human cathepsin F (Homo sapiens, UniProt Q9UBX1).
T1 sequence (Q9UBX1 271-484): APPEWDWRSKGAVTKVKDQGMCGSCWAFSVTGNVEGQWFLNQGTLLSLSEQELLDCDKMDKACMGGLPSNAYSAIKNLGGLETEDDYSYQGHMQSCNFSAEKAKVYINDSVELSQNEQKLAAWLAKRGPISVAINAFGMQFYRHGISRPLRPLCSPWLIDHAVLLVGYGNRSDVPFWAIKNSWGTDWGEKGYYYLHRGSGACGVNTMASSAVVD
The experiment in a line: Cathepsin F assay (hCat F). Type of assay: biochemical. The following applies: Z-Phe-Arg-AMC substrate, pH 5.5, 15 min preincubation; read-out: hCat F (IP (nM)). The method, then: Cathepsin F assay (hCat F)
as §1, with “Serial dilutions (1/3) from 500 μM down to 0.025 μM of test compounds were prepared in dimethyl sulfoxide (DMSO). Then” for “Then”, “F (10” for “K (0.4”, “Z-Phe-Arg-AMC” for “Z-Leu-Arg-AMC”, “20” for “30”

Some results are limits rather than exact numbers.

On to `N#CC1(NC(=O)[C@@H]2CCCC[C@H]2c2nc(C(O)C(F)(F)F)sc2-c2ccc(N3CCS(=O)(=O)CC3)cc2)CC1` (mixture of isomers) [Example 228, (1R,2R)-N-(1-cyanocyclopropyl)-2-(5-(4-(1,1-dioxidothiomorpho-lino)phenyl)-2-((R and S)-2,2,2-trifluoro-1-hydroxyethyl)thia-zol-4-yl)cyclohexane-carboxamide], for which the IC50 came to 5.1 nM in assay [1] and 5390 nM in assay [2].

Regarding `C[C@@H](C#N)NC(=O)[C@@H]1CCCC[C@H]1c1nc(C(O)C(F)(F)F)sc1-c1ccc(N2CCS(=O)(=O)CC2)cc1` (mixture of isomers) [Example 229, (1R,2R)-N-((S)-1-cyanoethyl)-2-(5-(4-(1,1-dioxidothiomorpho-lino)phenyl)-2-((R and S)-2,2,2-trifluoro-1-hydroxyethyl)thia-zol-4-yl)cyclohexane-carboxamide], the IC50 is 2.6 nM in assay [1] and 757 nM in assay [2].

Consider `Cc1nc(C2CCCCC2C(=O)NCC#N)c(-c2ccc(N3CCS(=O)(=O)CC3)cc2)s1` (racemic) [Example 245, N-(cyanomethyl)-2-(5-(4-(1,1-dioxidothiomorpho-lino)phenyl)-2-methylthiazol-4-yl)cyclohexane-carboxamide], for which the IC50 in assay [1] was 5.4 nM; in assay [2], 3280 nM.

As to `Cc1nc(C2CCCCC2C(=O)NCC#N)c(-c2ccc(C(=O)N3CCOCC3)cc2)s1` (racemic) [Example 246, N-(cyanomethyl)-2-(2-methyl-5-(4-(morpholine-4-carbonyl)phenyl)thi-azol-4-yl)cyclohexane-carboxamide], the IC50 in assay [1] was 38.2 nM; in assay [2], greater than 10000 nM.

Consider `N#CCNC(=O)C1CCCCC1c1nc(-c2ccccc2)sc1-c1ccc(N2CCS(=O)(=O)CC2)cc1` (racemic) [Example 247, N-(cyanomethyl)-2-(5-(4-(1,1-dioxidothiomorpho-lino)phenyl)-2-phenylthiazol-4-yl)cyclohexane-carboxamide], for which the IC50 was determined as 2.1 nM in assay [1] and 229 nM in assay [2].

On to `N#CC1(NC(=O)[C@@H]2CC3CC3C[C@H]2c2nc(-c3cncc(F)c3)sc2-c2ccc(N3CCS(=O)(=O)CC3)cc2)CC1` (single isomer, unassigned) [Compound 3, (1S or 1R,3R,4R,6R or 6S)-N-(1-Cyanocyclopropyl)-4-(5-(4-(1,1-dioxidothiomorpholino)phenyl)-2-(5-fluoropyridin-3-yl)thiazol-4-yl)bicyclo[4.1.0]heptane-3-carboxamide], for which the figures for the IC50 in assay [1] and in assay [2] were 0.7 nM and 225 nM, respectively.

Consider `N#CC1(NC(=O)[C@@H]2CC3CC3C[C@H]2c2nc(-c3cncc(F)c3)sc2-c2ccc(N3CCS(=O)(=O)CC3)cc2)CC1` (single isomer, unassigned) [Compound 4, (1R or 1S,3R,4R,6S or 6R)-N-(1-Cyanocyclopropyl)-4-(5-(4-(1,1-dioxidothiomorpholino)phenyl)-2-(5-fluoropyridin-3-yl)thiazol-4-yl)bicyclo[4.1.0]heptane-3-carboxamide], for which the IC50 amounted to 0.9 nM in assay [1] and 439 nM in assay [2].

On to `N#CC1(NC(=O)[C@@H]2CC3CC3C[C@H]2c2nc(-c3ccc(F)cn3)sc2-c2ccc(N3CCS(=O)(=O)CC3)cc2)CC1` (single isomer, unassigned) [Example 100, (1S or 1R,3R,4R,6R or 6S)-N-(1-cyanocyclopropyl)-4-(5-(4-(1,1-dioxidothiomorpho-lino)phenyl)-2-(5-fluoropyridin-2-yl)thiazol-4-yl)bicyclo[4.1.0] heptane-3-carboxamide], for which the IC50 in assay [1] worked out at 1.7 nM; in assay [2], 632 nM.

Regarding `N#CC1(NC(=O)[C@@H]2CC3CC3C[C@H]2c2nc(-c3ccc(F)cn3)sc2-c2ccc(N3CCS(=O)(=O)CC3)cc2)CC1` (single isomer, unassigned) [Example 105, (1R or 1S,3R,4R,6S or 6R)-N-(1-cyanocyclopropyl)-4-(5-(4-(1,1-dioxidothiomorpho-lino)phenyl)-2-(5-fluoropyridin-2-yl)thiazol-4-yl)bicyclo[4.1.0] heptane-3-carboxamide], the IC50 in assay [1] was 0.8 nM; in assay [2] it was 371 nM.

For `N#CC1(NC(=O)[C@@H]2CC3CC3C[C@H]2c2nc(-c3cncc(Cl)c3)sc2-c2ccc(N3CCS(=O)(=O)CC3)cc2)CC1` (single isomer, unassigned) [Example 109, (1S or R,3R,4R,6R or S)-4-(2-(5-chloropyridin-3-yl)-5-(4-(1,1-dioxidothiomorpho-lino)phenyl)thiazol-4-yl)-N-(1-cyanocyclopropyl) bicyclo[4.1.0]heptane-3-carboxamide], the figures for the IC50 in assay [1] and in assay [2] were 0.6 nM and 258 nM, respectively.

As for `N#CC1(NC(=O)[C@@H]2CC3CC3C[C@H]2c2nc(-c3cncc(F)c3)sc2-c2ccc(N3CCS(=O)(=O)CC3)cc2)CC1` (single isomer, unassigned) [Example 111, (1S or 1R,3R,4R,6R or 6S)-N-(1-cyanocyclopropyl)-4-(5-(4-(1,1-dioxidothiomorpho-lino)phenyl)-2-(5-fluoropyridin-3-yl)thiazol-4-yl)bicyclo[4.1.0] heptane-3-carboxamide], the IC50 turned out to be 0.7 nM in assay [1] and 225 nM in assay [2].

Consider `N#CC1(NC(=O)[C@@H]2CC3CC3C[C@H]2c2nc(-c3cncc(F)c3)sc2-c2ccc(N3CCS(=O)(=O)CC3)cc2)CC1` (single isomer, unassigned) [Example 112, (1R or 1S,3R,4R,6S or 6R)-N-(1-cyanocyclopropyl)-4-(5-(4-(1,1-dioxidothiomorpho-lino)phenyl)-2-(5-fluoropyridin-3-yl)thiazol-4-yl)bicyclo[4.1.0] heptane-3-carboxamide], for which the IC50 in assay [1] was determined as 0.9 nM; in assay [2], 439 nM.

As to `N#CC1(NC(=O)[C@@H]2CC3CC3C[C@H]2c2nc(-c3cncc(Cl)c3)sc2-c2ccc(N3CCS(=O)(=O)CC3)cc2)CC1` (single isomer, unassigned) [Example 113], the values for the IC50 in assay [1] and in assay [2] were 0.8 nM and 482 nM, respectively.

`CC(C#N)NC(=O)[C@@H]1C[C@@H](F)CC[C@H]1c1nc(-c2cncc(F)c2)sc1-c1ccc(N2CCS(=O)(=O)CC2)cc1` (single isomer, unassigned) [Example 126, (1R,2R,5S)-N-((S or R)-1-cyanoethyl)-2-(5-(4-(1,1-dioxidothiomorpho-lino)phenyl)-2-(5-fluoropyridin-3-yl)thiazol-4-yl)-5-fluorocyclohexane-carboxamide]: the IC50 was determined as 1.7 nM in assay [1] and 1760 nM in assay [2].

Take `CC(C#N)NC(=O)[C@@H]1C[C@@H](F)CC[C@H]1c1nc(-c2cncc(F)c2)sc1-c1ccc(N2CCS(=O)(=O)CC2)cc1` (single isomer, unassigned) [Example 127, (1R,2R,5S)-N-((R or S)-1-cyanoethyl)-2-(5-(4-(1,1-dioxidothiomorpho-lino)phenyl)-2-(5-fluoropyridin-3-yl)thiazol-4-yl)-5-fluorocyclohexane-carboxamide]: the IC50 in assay [1] is 42.5 nM; in assay [2], no less than 10000 nM.
